Laboratory results taken from patent publication US20090275626A1, “PHARMACEUTICAL COMPOSITION FOR PREVENTION OR TREATMENT OF NEUROGENIC PAIN” (KISSEI PHARMACEUTICAL CO., LTD., priority 2005, published 2009).
Entries after “also recorded” stand apart in the source; their conditions may differ.

Key:
Assay type in all cases: in vivo, rat
Seltzer model rats = test: Nociceptive threshold in Seltzer model rats (Test Example 3, Randall-Selitto method); conditions: for nociceptive threshold of the nerve ligation group: 1 hour after final administration; for analgesic effect compared with carbamazepine: Compounds 1, 2: 1 mg/kg s.c., Compound 3 hydrochloride: 10 mg/kg oral, carbamazepine 10 mg/kg oral, 2 weeks
Description: Fifty-eight, 7-week old male SD rats were anesthetized with pentobarbital (Nembutal injection (a registered trademark)), and the right sciatic nerve was exposed. In the nerve ligation group (48 rats), half of the dorsal portion of the nerve was ligated using 6-0 nylon suture. In Normal group (10 rats), the sciatic nerve was only exposed. From the following day of the model preparation, each test article (Compound 1, Compound 2 or Compound 3 hydrochloride) was repeatedly administered once a day for 2 weeks. Compound 1 (10 rats) and Compound 2 (10 rats) were administered subcutaneously, and Compound 3 hydrochloride (9 rats) and carbamazepine (10 rats) were administered orally. Control group (9 rats) and Normal group were subcutaneously administered physiological saline. One hour after the final administration of the test articles, the nociceptive threshold against pressure stimulation given to the right hind-paw of rats was measured by Randall-Selitto method, and compared with Control group.

[1] = system: STZ-induced diabetic rats; test: Nociceptive threshold in STZ-induced diabetic rats, repeated subcutaneous administration over 10 weeks (Test Example 2, Randall-Selitto method); conditions: for nociceptive threshold after 14-day repeated administration: 0.1, 0.3 and 1 mg/kg subcutaneous once a day, right hind-paw pressure, vs Control group; for neuroprotective effects: concluded from controlled changes of nociceptive threshold over 10 weeks (early hyperalgesia, late hypoalgesia); for changes of the nociceptive threshold over 10 weeks after STZ administration (repeated-measures analysis of variance vs Control group): subcutaneous once a day, measured every 2 weeks until 10th week, P<0.05
Protocol: STZ (50 mg/kg) was administered intravenously to male SD stain rats to induce diabetes mellitus. From the following day of the STZ administration, test article (Compound 1 or 2) was administered subcutaneously once a day, repeatedly. Normal and Control groups were administered subcutaneously physiological saline (9-10 rats in each group). Before the STZ administration and every 2 weeks until the 10th week after STZ administration, the nociceptive threshold against pressure stimulation given to the right hind-paw of rats was measured by Randall-Selitto method, and compared with Control group.
The changes of the nociceptive thresholds (mean±SE) in each group over 10 weeks after administration of each drug are shown in FIG. 2 and FIG. 3.

[2] = system: STZ-induced diabetic rats; test: Nociceptive threshold in STZ-induced diabetic rats, repeated oral administration (Test Example 1, Randall-Selitto method); conditions: Compound 3 hydrochloride 10 mg/kg oral twice a day, 14-day repeated administration, 1 hour after final administration, right hind-paw pressure, vs Control group
Protocol: STZ (50 mg/kg) was administered intravenously to 7-week old male SD stain rats to induce diabetes mellitus. From the following day of the STZ administration, test article (Compound 3 hydrochloride) was administered orally twice a day, repeatedly (10 rats in each group). Normal and Control groups were administered the medium (0.5% methylcellulose). The nociceptive threshold against pressure stimulation given to the right hind-paw of rats after 2 weeks administration (1 hour after the final administration) of test article was measured by Randall-Selitto method, and compared with Control group.

[3] = 10 mg/kg oral once a day for 2 weeks
[4] = 1 mg/kg subcutaneous once a day for 2 weeks

SMILES | nociceptive threshold of the nerve ligation group (Seltzer model rats; [3]) | nociceptive threshold after 14-day repeated administration [1] | neuroprotective effects [1] | changes of the nociceptive threshold over 10 weeks after STZ administration (repeated-measures analysis of variance vs Control group) ([1]; disodium salt) | nociceptive threshold of the nerve ligation group (Seltzer model rats; [4]) | analgesic effect compared with carbamazepine (Seltzer model rats) | changes of the nociceptive threshold over 10 weeks after STZ administration (repeated-measures analysis of variance vs Control group) ([1]; sodium salt) | nociceptive threshold [2]
NC(=O)N1c2ccccc2C=Cc2ccccc21 [carbamazepine, reference compound] | analgesic effect |  |  |  |  |  |  | 
C[C@H](Cc1ccc2c(c1)OC(C(=O)[O-])(C(=O)[O-])O2)NC[C@H](O)c1cccc(Cl)c1.[Na+].[Na+] [Compound 2] |  | increased clearly in a dose-dependent manner at 0.3 mg/kg or above | have neuroprotective effects | significant differences in comparison with Control group; also recorded: significant difference | significantly improved | comparable to that of carbamazepine |  | 
C[C@H](Cc1ccc(OCC(=O)[O-])cc1)NC[C@H](O)c1cccc(Cl)c1.[Na+] [Compound 1] |  | increased clearly in a dose-dependent manner at 0.3 mg/kg or above | have neuroprotective effects |  | significantly improved | comparable to that of carbamazepine | significant differences in comparison with Control group; also recorded: significant difference | 
Cc1cc(-c2ccc(C(=O)O)c(C(C)C)c2)cc(C)c1OCCN[C@@H](C)[C@H](O)c1ccc(O)cc1 [Compound 3, 4′-[2-[(1S,2R)-2-hydroxy-2-(4-hydroxyphenyl)-1-methylethylamino]ethoxy]-3-isopropyl-3′,5′-dimethylbiphenyl-4-carboxylic acid] | significantly improved |  |  |  |  | comparable to that of carbamazepine |  | increased remarkably
